The values below are quoted from earlier work in US6399640B1, “Arylthiazolidinedione and aryloxazolidinedione derivatives” (Merck & Co., Inc., priority 1999, dated 2002).

In one data set the test system is ob/ob mice. The note with it: Cantello et al, J. Med. Chem. 1994.
A further data set relates to PPARγ. The settings on record: subsequent studies; Willson et al, J. Med. Chem. 1996.
The subject of the next data set is diabetic mouse model. The note with it: Sohda et al, Chem. Pharm. Bull. 1982.

Each structure is given as a SMILES string.

In the case of `CN(CCOc1ccc(C2SC(=O)NC2=O)cc1)c1nc2ccccc2o1` (stereo not drawn) [(1)], the antihyperglycemic activity entry with ob/ob mice is recorded as “no antihyperglycemic activity”. Also, the “amounts required for PPARγ activation” value in the data set on PPARγ is “relatively high amounts”.

On to `O=C1NC(=O)C(c2ccc(OCCc3ccccc3)cc2)S1` (stereo not drawn) [(2), 5-[4-(phenylethoxy)phenyl]-2,4-thiazolidinedione], for which, in the data set with diabetic mouse model, the antihyperglycemic effect entry is reported as “no antihyperglycemic effect”.
